Measurements reported in patent publication US20100075965A1, “PI3 KINASE INHIBITORS AND METHODS OF THEIR USE” (Novartis AG, priority 2006, published 2010).
pEC50, pIC50: −log10 of the molar value.

Assays:
PI3 K Alpha = PI3 K Alpha (Homo sapiens, UniProt P42336); experiment: PI3 kinase phosphorylation assays (homogenous solution phase, one step solid phase, ATP depletion/KinaseGlo); assay type: biochemical; settings: read-out: PI3K Alpha IC50
A2780 cells = experiment: Viability assay in A2780 (Cell Titer Glo); assay type: cell-based, human; settings: Homo sapiens; A2780 cells; read-out: A2780 Cell prolif. EC50
Summary of the method: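 A2780 cells (1,000/well, DMEM + 10% FBS) were exposed to 3-fold serial dilutions of compound for 72 hrs at 37° C, 5% CO2. Viable cells were read by Cell Titer Glo luminescence, in duplicate, and EC50 values were derived from the curves.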

Sequence of PI3 K Alpha (P42336 whole entry): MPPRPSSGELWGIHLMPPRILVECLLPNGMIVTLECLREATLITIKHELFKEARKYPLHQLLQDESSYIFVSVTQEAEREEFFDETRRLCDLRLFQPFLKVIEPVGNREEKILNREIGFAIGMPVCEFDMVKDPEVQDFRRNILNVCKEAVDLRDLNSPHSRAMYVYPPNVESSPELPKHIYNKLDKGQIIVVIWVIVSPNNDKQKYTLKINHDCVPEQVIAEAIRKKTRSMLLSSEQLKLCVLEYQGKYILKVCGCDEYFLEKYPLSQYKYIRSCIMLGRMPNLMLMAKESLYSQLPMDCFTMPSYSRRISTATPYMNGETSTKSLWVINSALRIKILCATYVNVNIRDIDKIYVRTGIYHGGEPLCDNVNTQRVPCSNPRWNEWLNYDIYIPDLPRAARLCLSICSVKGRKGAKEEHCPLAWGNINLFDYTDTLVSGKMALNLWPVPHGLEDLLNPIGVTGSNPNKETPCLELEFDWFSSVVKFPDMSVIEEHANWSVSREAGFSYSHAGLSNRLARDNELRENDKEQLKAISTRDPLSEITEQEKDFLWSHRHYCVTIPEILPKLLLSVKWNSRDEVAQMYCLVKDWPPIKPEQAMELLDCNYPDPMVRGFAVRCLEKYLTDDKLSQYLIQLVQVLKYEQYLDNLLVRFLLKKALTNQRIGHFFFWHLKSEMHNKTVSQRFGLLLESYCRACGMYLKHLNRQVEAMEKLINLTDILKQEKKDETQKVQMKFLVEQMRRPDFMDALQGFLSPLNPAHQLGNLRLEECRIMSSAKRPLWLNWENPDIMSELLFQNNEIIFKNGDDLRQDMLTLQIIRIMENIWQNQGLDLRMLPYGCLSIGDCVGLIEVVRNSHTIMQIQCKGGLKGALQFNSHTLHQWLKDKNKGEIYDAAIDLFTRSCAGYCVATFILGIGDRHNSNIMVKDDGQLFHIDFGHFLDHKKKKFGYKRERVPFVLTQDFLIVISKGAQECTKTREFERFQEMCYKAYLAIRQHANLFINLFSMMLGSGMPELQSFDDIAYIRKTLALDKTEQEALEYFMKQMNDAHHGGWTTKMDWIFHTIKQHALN
Sequence of PI3 K Alpha (P27986 whole entry partner): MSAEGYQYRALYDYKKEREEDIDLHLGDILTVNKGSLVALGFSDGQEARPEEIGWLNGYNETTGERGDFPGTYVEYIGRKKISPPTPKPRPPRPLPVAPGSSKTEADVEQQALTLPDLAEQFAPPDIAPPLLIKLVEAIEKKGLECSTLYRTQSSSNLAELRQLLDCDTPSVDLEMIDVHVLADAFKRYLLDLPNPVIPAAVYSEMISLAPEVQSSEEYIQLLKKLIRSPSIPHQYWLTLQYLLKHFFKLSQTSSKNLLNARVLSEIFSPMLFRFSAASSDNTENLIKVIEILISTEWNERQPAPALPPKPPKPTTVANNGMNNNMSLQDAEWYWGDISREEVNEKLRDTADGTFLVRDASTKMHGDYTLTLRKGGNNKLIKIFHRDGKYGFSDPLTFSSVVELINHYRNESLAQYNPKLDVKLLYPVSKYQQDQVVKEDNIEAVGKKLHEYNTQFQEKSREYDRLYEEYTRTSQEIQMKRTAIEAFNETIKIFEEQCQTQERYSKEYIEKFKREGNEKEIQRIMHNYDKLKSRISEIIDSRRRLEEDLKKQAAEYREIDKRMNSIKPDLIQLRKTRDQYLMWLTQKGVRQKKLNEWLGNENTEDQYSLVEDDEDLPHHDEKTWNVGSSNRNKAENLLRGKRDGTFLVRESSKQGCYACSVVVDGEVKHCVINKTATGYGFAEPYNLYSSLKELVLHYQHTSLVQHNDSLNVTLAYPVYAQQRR

SMILES	pIC50 (PI3 K Alpha)	pEC50 (A2780 cells)
NC(=O)Nc1cn2cc(-c3cnc(N)c(C(F)(F)F)c3)ccc2n1 [Example 219, 1-(6-(6-amino-5-(trifluoromethyl)pyridin-3-yl)imidazo[1,2-a]pyridin-2-yl)urea]	> 6.00	> 5.00
CCN1CCC(OCC(=O)Nc2cn3cc(-c4cnc(N)c(C(F)(F)F)c4)ccc3n2)CC1 [Example 221, N-(6-(6-amino-5-(trifluoromethyl)yl)imidazo[1,2-a]pyridin-2-yl)-2-(1-ethylpiperidin-4-yloxy)acetamide]	> 6.00	> 5.00
CC(=O)Nc1cn2cc(-c3cnc(N)c(Oc4ccc(N5CCN(C(C)=O)CC5)cc4)n3)ccc2n1 [Example 222, N-(6-(6-(4-(4-acetylpiperazin-1-yl)phenoxy)-5-aminopyrazin-2-yl)imidazo[1,2-a]pyridin-2-yl)acetamide]	> 6.00	> 5.00
C[C@@H](N)C(=O)Nc1cn2nc(-c3cnc(N)c(C(F)(F)F)c3)ccc2n1 [Example 223, (R)-2-amino-N-(6-(6-amino-5-(trifluoromethyl)pyridin-3-yl)imidazo[1,2-b]pyridazin-2-yl)propanamide]	> 6.00	> 5.00
Nc1ncc(-c2ccc3nc(NC(=O)N4CC[C@H](O)C4)cn3c2)cc1C(F)(F)F [Example 224, (S)-N-(6-(6-amino-5-(trifluoromethyl)pyridin-3-yl)imidazo[1,2-a]pyridin-2-yl)-3-hydroxy-pyrrolidine-1-carboxamide]	> 6.00	> 5.00
Nc1ncc(-c2ccc3nc(NC(=O)c4cccc(Cl)c4)cn3c2)cc1C(F)(F)F [Example 225, N-(6-(6-amino-5-(trifluoromethyl)pyridin-3-yl)imidazo[1,2-a]pyridin-2-yl)-3-chlorobenzamide]	> 6.00	> 5.00
CC(=O)Nc1cn2cc(-c3cnc(N)c(C)n3)ccc2n1 [Example 226, N-(6-(5-amino-6-methylpyrazin-2-yl)imidazo[1,2-a]pyridin-2-yl)acetamide]	> 6.00	> 5.00
CCN1CC[C@@H](OCC(=O)Nc2cn3cc(-c4cnc(N)c(C(F)(F)F)c4)ccc3n2)C1 [Example 227, (R)-N-(6-(6-amino-5-(trifluoromethyl)pyridin-3-yl)imidazo[1,2-a]pyridin-2-yl)-2-(1-ethylpyrrolidn-3-yloxy)acetamide]	> 6.00	> 5.00
Nc1ncc(-c2ccc3nc(NC(=O)[C@@H]4CCN4)cn3c2)cc1C(F)(F)F [Example 228, (S)-N-(6-(6-amino-5-(trifluoromethyl)pyridin-3-yl)imidazo[1,2-a]pyridin-2-yl)azetidine-2-carboxamide]	> 6.00	> 5.00
Nc1ncc(-c2ccc3nc(NC(=O)C4CCN4)cn3c2)nc1OCC(F)(F)F (stereo not shown) [Example 229, N-(6-(5-amino-6-(2,2,2-trifluoroethoxy)pyrazin-2-yl)imidazo[1,2-a]pyridin-2-yl)azetidine-2-carboxamide]	> 6.00	> 5.00
CC(C)C(=O)Nc1cn2cc(-c3cnc(N)c(OCC(F)(F)F)n3)ccc2n1 [Example 230, N-(6-(5-amino-6-(2,2,2-trifluoroethoxy)pyrazin-2-yl)imidazo[1,2-a]pyridin-2-yl)isobutyramide]	> 6.00	> 5.00
CC(C)(C)OC(=O)NCCC(=O)Nc1cn2nc(-c3cnc(N)c(C(F)(F)F)c3)ccc2n1 [Example 231, tert-butyl 3-(6-(6-amino-5-(trifluoromethyl)pyridin-3-yl)imidazo[1,2-b]pyridazin-2-ylamino)-3-oxopropyl-carbamate]	> 6.00	> 5.00
Nc1ncc(-c2ccc3nc(NC(=O)N4CCC[C@H]4CO)cn3c2)cc1C(F)(F)F [Example 232, (S)-N-(6-(6-amino-5-(trifluoromethyl)pyridin-3-yl)imidazo[1,2-a]pyridin-2-yl)-2-(hydroxymethyl) pyrrolidine-1-carboxamide]	> 6.00	> 5.00
Nc1ncc(-c2ccc3nc(NC(=O)[C@@H]4CCCCN4Cc4ccccc4)cn3c2)cc1C(F)(F)F [Example 233]	> 6.00	> 5.00
CC(C)(C)OC(=O)N1CC(C(=O)Nc2cn3cc(-c4cnc(N)c(C(F)(F)F)c4)ccc3n2)C1 [Example 234, tert-butyl 3-(6-(6-amino-5-(trifluoromethyl)pyridin-3-yl)imidazo[1,2-a]pyridin-2-ylcarbamoyl) azetidine-1-carboxylate]	> 6.00	> 5.00
CCC(=O)Nc1cn2cc(-c3cnc(N)c(C(F)(F)F)c3)ccc2n1 [Example 236, N-(6-(6-amino-5-(trifluoromethyl)pyridin-3-yl)imidazo[1,2-a]pyridin-2-yl)propionamide]	> 6.00	> 5.00

SMILES	pIC50 (PI3 K Alpha)	pEC50 (A2780 cells)
CN(CC(=O)Nc1cn2nc(-c3cnc(N)c(C(F)(F)F)c3)ccc2n1)C(=O)OC(C)(C)C [Example 237, tert-butyl 2-(6-(6-amino-5-(trifluoromethyl)pyridin-3-yl)imidazo[1,2-b]pyridazin-2-ylamino)-2-oxoethyl(methyl) carbamate]	> 6.00	> 5.00
Nc1ncc(-c2ccc3nc(NC(=O)CCCn4ccnc4)cn3c2)cc1C(F)(F)F [Example 238, N-(6-(6-amino-5-(trifluoromethyl)pyridin-3-yl)imidazo[1,2-a]pyridin-2-yl)-4-(1H-imidazol-1-yl)butanamide]	> 6.00	> 5.00
C[C@H](N)C(=O)Nc1cn2nc(-c3cnc(N)c(C(F)(F)F)c3)ccc2n1 [Example 239, (S)-2-amino-N-(6-(6-amino-5-(trifluoromethyl)pyridin-3-yl)imidazo[1,2-b]pyridazin-2-yl)propanamide]	> 6.00	> 5.00
CCN(CC)Cc1cc(-c2ccc3nc(NC(C)=O)cn3n2)cnc1N [Example 240, N-(6-(6-amino-5-((diethylamino)methyl)pyridin-3-yl)imidazo[1,2-b]pyridazin-2-yl)acetamide]	> 6.00	> 5.00
CC(=O)Nc1cn2nc(-c3cnc(N)c(CN4CCCC4)c3)ccc2n1 [Example 242, N-(6-(6-amino-5-(pyrrolidin-1-ylmethyl)pyridin-3-yl)imidazo[1,2-b]pyridazin-2-yl)acetamide]	> 6.00	> 5.00
CC(=O)Nc1nc2ccc(-c3cnc(N)c(C(F)(F)F)c3)cn2c1C(N)=O [Example 243, 2-acetamido-6-(6-amino-5-(trifluoromethyl)pyridin-3-yl)imidazo[1,2-a]pyridine-3-carboxamide]	> 6.00	> 5.00
CN(CC(=O)Nc1cn2cc(-c3cnc(N)c(C(F)(F)F)c3)ccc2n1)C(=O)OC(C)(C)C [Example 244, tert-butyl 2-(6-(6-amino-5-(trifluoromethyl)pyridin-3-yl)imidazo[1,2-a]pyridin-2-ylamino)-2-oxoethyl(methyl) carbamate]	> 6.00	> 5.00
N#Cc1cccc(C(=O)Nc2cn3cc(-c4cnc(N)c(C(F)(F)F)c4)ccc3n2)c1 [Example 245, N-(6-(6-amino-5-(trifluoromethyl)pyridin-3-yl)imidazo[1,2-a]pyridin-2-yl)-3-cyanobenzamide]	> 6.00	> 5.00
NCCC(=O)Nc1cn2nc(-c3cnc(N)c(C(F)(F)F)c3)ccc2n1 [Example 246, 3-amino-N-(6-(6-amino-5-(trifluoromethyl)pyridin-3-yl)imidazo[1,2-b]pyridazin-2-yl)propanamide]	> 6.00	> 5.00
CC(=O)Nc1nc2ccc(-c3cnc(N)c(C(F)(F)F)c3)cn2c1C#CCNC(=O)OC(C)(C)C [Example 247, tert-butyl 3-(2-acetamido-6-(6-amino-5-(trifluoromethyl)pyridin-3-yl)imidazo[1,2-a]pyridin-3-yl)prop-2-ynylcarbamate]	> 6.00	> 5.00
CN(C)C1CCN(C(=O)Nc2cn3cc(-c4cnc(N)c(C(F)(F)F)c4)ccc3n2)C1 (stereo not shown) [Example 248, N-(6-(6-amino-5-(trifluoromethyl)pyridin-3-yl)imidazo[1,2-a]pyridin-2-yl)-3-(dimethylamino) pyrrolidine-1-carboxamide]	> 6.00	> 5.00
COCCOc1nc(-c2ccc3nc(NC(=O)C4CCN4C(C)=O)cn3c2)cnc1N (stereo not shown) [Example 249, 1-acetyl-N-(6-(5-amino-6-(2-methoxyethoxy)pyrazin-2-yl)imidazo[1,2-a]pyridin-2-yl)azetidine-2-carboxamide]	> 6.00	> 5.00
CC(C)(C)OC(=O)N1CCCCC1CCC(=O)Nc1cn2nc(-c3cnc(N)c(C(F)(F)F)c3)ccc2n1 (stereo not shown) [Example 250, tert-butyl 2-(3-(6-(6-amino-5-(trifluoromethyl)pyridin-3-yl)imidazo[1,2-b]pyridazin-2-ylamino)-3-oxopropyl) piperidine-1-carboxylate]	> 6.00	> 5.00
CC(C)(C)OC(=O)N1CCC(OCC(=O)Nc2cn3cc(-c4cnc(N)c(C(F)(F)F)c4)ccc3n2)CC1 [Example 251, tert-butyl 4-(2-(6-(6-amino-5-(trifluoromethyl)pyridin-3-yl)imidazo[1,2-a]pyridin-2-ylamino)-2-oxoethoxy) piperidine-1-carboxylate]	> 6.00	> 5.00
C/C=C/C(=O)Nc1cn2cc(-c3cnc(N)c(C(F)(F)F)c3)ccc2n1 [Example 252, (E)-N-(6-(6-amino-5-(trifluoromethyl)pyridin-3-yl)imidazo[1,2-a]pyridin-2-yl)but-2-enamide]	> 6.00	> 5.00
C[C@@H](NC(=O)OC(C)(C)C)C(=O)Nc1cn2nc(-c3cnc(N)c(C(F)(F)F)c3)ccc2n1 [Example 253, (R)-tert-butyl 1-(6-(6-amino-5-(trifluoromethyl)pyridin-3-yl)imidazo[1,2-b]pyridazin-2-ylamino)-1-oxopropan-2-ylcarbamate]	> 6.00	> 5.00
